≈ marks a conversion by molar mass, not a printed value. Where a SMILES comes first, the peptide text is derived from it. [ ]: non-standard residue; d: D form. Gly(N(CH2)2(3-indolyl)) = O=C(O)CNCCc1c[nH]c2ccccc12; Nspe = C[C@H](NCC(=O)O)c1ccccc1; Nlys = NCCCCNCC(=O)O
Experiments:
red blood cells = assay: Hemolysis assay; type: cell-based, Sprague-Dawley mouse
In short: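 Peptoid is mixed with 10% (v/v) PBS-washed erythrocytes (male Sprague-Dawley […], 13 weeks) and held 1 h at 37 °C. Hemolysis is calculated from 540 nm absorbance of the supernatant, with PBS as 0% and Triton X-100 as 100%.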

S. aureus ATCC 25923 = conditions: Tables 11-13; 24 hours at 37° C.; maximum concentration 25 μM
In short: (§1)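 Cation-adjusted MHB2 cultures (18 h, subcultured 4 h) adjusted to 2×10^5–5×10^5 CFU/mL in medium with 0.02% BSA and 0.001% acetic acid.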

E. coli ATCC25922 = conditions: Tables 11-13; 24 hours at 37° C.; maximum concentration 25 μM
In short: as §1

| Compound | HC10 (red blood cells) | HC50 (red blood cells) | Hmax (100 μM) (red blood cells) [%] | MIC S. aureus ATCC 25923 (S. aureus ATCC 25923) [µM] | MIC E. coli ATCC25922 (E. coli ATCC25922) [µM] |
| --- | --- | --- | --- | --- | --- |
| C[C@@H](c1ccccc1)N(CC(=O)N(CCCCN)CC(=O)N(CC(=O)N(CC(=O)N(CCCCN)CC(=O)N(CCc1c[nH]c2ccccc12)CC(=O)N(CCc1c[nH]c2ccccc12)CC(N)=O)[C@@H](C)c1ccccc1)[C@@H](C)c1ccccc1)C(=O)CN(C(=O)CN(CCCCN)C(=O)CN(CCc1c[nH]c2ccccc12)C(=O)CN(CCc1c[nH]c2ccccc12)C(=O)CNCCCCN)[C@@H](C)c1ccccc1 [Peptoid 18] (H-[Nlys][Gly(N(CH2)2(3-indolyl))][Gly(N(CH2)2(3-indolyl))][Nlys][Nspe][Nspe][Nlys][Nspe][Nspe][Nlys][Gly(N(CH2)2(3-indolyl))][Gly(N(CH2)2(3-indolyl))]-NH2) | 14.3 µM | 37.8 µM | 103.5 ± 4.3 | 3.1 (≈ 6.12 µg/mL) | 12.5 (≈ 24.7 µg/mL) |
| C[C@@H](c1ccccc1)N(CC(N)=O)C(=O)CN(C(=O)CN(CCCCN)C(=O)CN(CCc1c[nH]c2ccccc12)C(=O)CN(CCc1c[nH]c2ccccc12)C(=O)CN(CCCCN)C(=O)CN(CCc1c[nH]c2ccccc12)C(=O)CN(CCc1c[nH]c2ccccc12)C(=O)CN(CCCCN)C(=O)CN(C(=O)CN(C(=O)CNCCCCN)[C@@H](C)c1ccccc1)[C@@H](C)c1ccccc1)[C@@H](C)c1ccccc1 [Peptoid 20] | 8.2 µM | 33.9 µM | 106.7 ± 3.5 | 1.6 (≈ 3.16 µg/mL) | 6.3 (≈ 12.4 µg/mL) |
| C[C@@H](c1ccccc1)N(CC(N)=O)C(=O)CN(C(=O)CN(CCCCN)C(=O)CN(C(=O)CN(C(=O)CN(CCCCN)C(=O)CN(CCc1c[nH]c2ccccc12)C(=O)CN(CCc1c[nH]c2ccccc12)C(=O)CN(CCCCN)C(=O)CN(CCc1c[nH]c2ccccc12)C(=O)CN(CCc1c[nH]c2ccccc12)C(=O)CNCCCCN)[C@@H](C)c1ccccc1)[C@@H](C)c1ccccc1)[C@@H](C)c1ccccc1 [Peptoid 21] | 23.2 µM | 64.9 µM | 83.7 ± 2.0 | 1.6 (≈ 3.16 µg/mL) | 6.3 (≈ 12.4 µg/mL) |
| C[C@@H](c1ccccc1)N(CC(=O)N(CCc1c[nH]c2ccccc12)CC(=O)N(CCCCN)CC(=O)N(CC(=O)N(CCc1c[nH]c2ccccc12)CC(=O)N(CCCCN)CC(=O)N(CC(=O)N(CCc1c[nH]c2ccccc12)CC(=O)N(CCCCN)CC(=O)N(CC(=O)N(CCc1c[nH]c2ccccc12)CC(N)=O)[C@@H](C)c1ccccc1)[C@@H](C)c1ccccc1)[C@@H](C)c1ccccc1)C(=O)CNCCCCN [Peptoid 22] (H-[Nlys][Nspe][Gly(N(CH2)2(3-indolyl))][Nlys][Nspe][Gly(N(CH2)2(3-indolyl))][Nlys][Nspe][Gly(N(CH2)2(3-indolyl))][Nlys][Nspe][Gly(N(CH2)2(3-indolyl))]-NH2) | 6.9 µM | 19.4 µM | 108.6 ± 1.1 | 1.6 (≈ 3.16 µg/mL) | 12.5 (≈ 24.7 µg/mL) |
| NCCCCNCC(=O)N(CCc1c[nH]c2ccccc12)CC(=O)N(CCc1c[nH]c2ccccc12)CC(=O)N(CCCCN)CC(=O)N(CCc1c[nH]c2ccccc12)CC(=O)N(CCc1c[nH]c2ccccc12)CC(=O)N(CCCCN)CC(=O)N(CCc1c[nH]c2ccccc12)CC(=O)N(CCc1c[nH]c2ccccc12)CC(=O)N(CCCCN)CC(=O)N(CCc1c[nH]c2ccccc12)CC(=O)N(CCc1c[nH]c2ccccc12)CC(N)=O [Peptoid 23] (H-[Nlys][Gly(N(CH2)2(3-indolyl))][Gly(N(CH2)2(3-indolyl))][Nlys][Gly(N(CH2)2(3-indolyl))][Gly(N(CH2)2(3-indolyl))][Nlys][Gly(N(CH2)2(3-indolyl))][Gly(N(CH2)2(3-indolyl))][Nlys][Gly(N(CH2)2(3-indolyl))][Gly(N(CH2)2(3-indolyl))]-NH2) | 17.1 µM | 45.2 µM | 72.2 ± 0.3 | 1.6 (≈ 3.41 µg/mL) | 25 (≈ 53.3 µg/mL) |
| C[C@@H](c1ccccc1)N(CC(N)=O)C(=O)CN(CCCCN)C(=O)CN(CCCCN)C(=O)CN(C(=O)CN(C(=O)CN(CCCCN)C(=O)CN(CCc1c[nH]c2ccccc12)C(=O)CN(C(=O)CN(CCCCN)C(=O)CN(C(=O)CN(C(=O)CNCCCCN)[C@@H](C)c1ccccc1)[C@@H](C)c1ccccc1)[C@@H](C)c1ccccc1)[C@@H](C)c1ccccc1)[C@@H](C)c1ccccc1 [Peptoid 24] | >100/>100 μM | >100/>100 μM | 1.5 ± 0.0 | 6.3 (≈ 11.5 µg/mL) | >25 |
| C[C@@H](c1ccccc1)N(CC(N)=O)C(=O)CN(C(=O)CN(CCCCN)C(=O)CN(C(=O)CN(CCCCN)C(=O)CN(CCCCN)C(=O)CN(CCc1c[nH]c2ccccc12)C(=O)CN(C(=O)CN(CCCCN)C(=O)CN(C(=O)CN(C(=O)CNCCCCN)[C@@H](C)c1ccccc1)[C@@H](C)c1ccccc1)[C@@H](C)c1ccccc1)[C@@H](C)c1ccccc1)[C@@H](C)c1ccccc1 [Peptoid 25] | >100/>100 μM | >100/>100 μM | 2.7 ± 0.4 | 3.1 (≈ 5.66 µg/mL) | >25 |
| C[C@@H](c1ccccc1)N(CC(N)=O)C(=O)CN(C(=O)CN(CCCCN)C(=O)CN(C(=O)CN(C(=O)CN(CCCCN)C(=O)CN(CCc1c[nH]c2ccccc12)C(=O)CN(CCCCN)C(=O)CN(CCCCN)C(=O)CN(C(=O)CN(C(=O)CNCCCCN)[C@@H](C)c1ccccc1)[C@@H](C)c1ccccc1)[C@@H](C)c1ccccc1)[C@@H](C)c1ccccc1)[C@@H](C)c1ccccc1 [Peptoid 26] | >100/>100 μM | >100/>100 μM | 0.7 ± 0.1 | 6.3 (≈ 11.5 µg/mL) | >25 |
| C[C@@H](c1ccccc1)N(CC(N)=O)C(=O)CN(C(=O)CN(CCCCN)C(=O)CN(C(=O)CN(C(=O)CN(CCCCN)C(=O)CN(CCc1c[nH]c2ccccc12)C(=O)CN(C(=O)CN(CCCCN)C(=O)CN(C(=O)CN(CCCCN)C(=O)CNCCCCN)[C@@H](C)c1ccccc1)[C@@H](C)c1ccccc1)[C@@H](C)c1ccccc1)[C@@H](C)c1ccccc1)[C@@H](C)c1ccccc1 [Peptoid 27] | >100/>100 μM | >100/>100 μM | 5.9 ± 0.2 | 3.1 (≈ 5.66 µg/mL) | 25 (≈ 45.6 µg/mL) |
| C[C@@H](c1ccccc1)N(CC(=O)N(CCCCN)CC(=O)N(CCCCN)CC(=O)N(CCc1c[nH]c2ccccc12)CC(=O)N(CCc1c[nH]c2ccccc12)CC(N)=O)C(=O)CN(CCCCN)C(=O)CN(C(=O)CN(C(=O)CN(CCCCN)C(=O)CN(C(=O)CN(C(=O)CNCCCCN)[C@@H](C)c1ccccc1)[C@@H](C)c1ccccc1)[C@@H](C)c1ccccc1)[C@@H](C)c1ccccc1 [Peptoid 28] (H-[Nlys][Nspe][Nspe][Nlys][Nspe][Nspe][Nlys][Nspe][Nlys][Nlys][Gly(N(CH2)2(3-indolyl))][Gly(N(CH2)2(3-indolyl))]-NH2) | >100/>100 μM | >100/>100 μM | 8.9 ± 1.4 | 6.3 (≈ 11.7 µg/mL) | 12.5 (≈ 23.3 µg/mL) |
| C[C@@H](c1ccccc1)N(CC(=O)N(CCCCN)CC(=O)N(CC(=O)N(CC(=O)N(CCCCN)CC(=O)N(CCc1c[nH]c2ccccc12)CC(=O)N(CCc1c[nH]c2ccccc12)CC(N)=O)[C@@H](C)c1ccccc1)[C@@H](C)c1ccccc1)C(=O)CN(CCCCN)C(=O)CN(CCCCN)C(=O)CN(C(=O)CN(C(=O)CNCCCCN)[C@@H](C)c1ccccc1)[C@@H](C)c1ccccc1 [Peptoid 30] (H-[Nlys][Nspe][Nspe][Nlys][Nlys][Nspe][Nlys][Nspe][Nspe][Nlys][Gly(N(CH2)2(3-indolyl))][Gly(N(CH2)2(3-indolyl))]-NH2) | >100/>100 μM | >100/>100 μM | 8.4 ± 0.5 | 3.1 (≈ 5.78 µg/mL) | 12.5 (≈ 23.3 µg/mL) |
| C[C@@H](c1ccccc1)N(CC(=O)N(CCCCN)CC(=O)N(CC(=O)N(CC(=O)N(CCCCN)CC(=O)N(CC(=O)N(CC(=O)N(CCCCN)CC(=O)N(CCc1c[nH]c2ccccc12)CC(=O)N(CCc1c[nH]c2ccccc12)CC(N)=O)[C@@H](C)c1ccccc1)[C@@H](C)c1ccccc1)[C@@H](C)c1ccccc1)[C@@H](C)c1ccccc1)C(=O)CN(CCCCN)C(=O)CNCCCCN [Peptoid 31] (H-[Nlys][Nlys][Nspe][Nlys][Nspe][Nspe][Nlys][Nspe][Nspe][Nlys][Gly(N(CH2)2(3-indolyl))][Gly(N(CH2)2(3-indolyl))]-NH2) | 59.0 µM | > 100 µM | 18.4 ± 5.0 | 3.1 (≈ 5.78 µg/mL) | 6.3 (≈ 11.7 µg/mL) |
| C[C@@H](c1ccccc1)N(CC(N)=O)C(=O)CN(C(=O)CN(CCCCN)C(=O)CN(C(=O)CN(CCCCN)C(=O)CN(CCCCN)C(=O)CN(C(=O)CN(C(=O)CN(CCCCN)C(=O)CN(CCc1c[nH]c2ccccc12)C(=O)CN(CCc1c[nH]c2ccccc12)C(=O)CNCCCCN)[C@@H](C)c1ccccc1)[C@@H](C)c1ccccc1)[C@@H](C)c1ccccc1)[C@@H](C)c1ccccc1 [Peptoid 33] | >100/>100 μM | >100/>100 μM | 5.0 ± 0.2 | 3.1 (≈ 5.78 µg/mL) | 12.5 (≈ 23.3 µg/mL) |
| C[C@@H](c1ccccc1)N(CC(N)=O)C(=O)CN(C(=O)CN(CCCCN)C(=O)CN(C(=O)CN(C(=O)CN(CCCCN)C(=O)CN(C(=O)CN(CCCCN)C(=O)CN(CCCCN)C(=O)CN(CCc1c[nH]c2ccccc12)C(=O)CN(CCc1c[nH]c2ccccc12)C(=O)CNCCCCN)[C@@H](C)c1ccccc1)[C@@H](C)c1ccccc1)[C@@H](C)c1ccccc1)[C@@H](C)c1ccccc1 [Peptoid 34] | >100/>100 μM | >100/>100 μM | 8.5 ± 1.1 | 3.1 (≈ 5.78 µg/mL) | 25 (≈ 46.6 µg/mL) |

Reference: patent US20240226228A1, “ANTIMICROBIAL PEPTOID HAVING IMPROVED SELECTIVITY AND ANTIMICROBIAL COMPOSITION COMPRISING SAME” (priority 2021, published 2024)
